Legend:
[1] = tested on: primary astrocytes; experiment: Extracellular lactate quantification; format: cell-based, mouse; details: Appendix I, secondary screening: extracellular lactate
Procedure: Secretion of L-lactate was determined in the extracellular medium of 96-well plated astrocytes after 90 min stimulation (at 37° C., in 5% CO2/95% air conditions) with the drug of interest. The stimulation medium was composed of D5030 medium (completed with D-glucose 5 mM and 44 mM sodium bicarbonate) for 90 min in concentrations ranging from 0 to 100 μM.
Briefly, 200 μl of a Glycine (Sigma)-Semicarbazide (Acros) 0.2M pH 10 buffer containing 3 mM NAD (Roche) and LDH 14 U/ml (Roche) was added to each well of a 96-well plate containing 30 μl aliquots complemented with 20 μl fresh complete D5030 medium. Samples were incubated at 37° C. for 1 h. After samples cooled down at room temperature, the fluorescence intensity (340 nm excitation/450 nm emission) that represents the amount of NADH produced was measured, and lactate concentration values were determined from a standard curve of L-lactate.
Statistical analysis consisted in ANOVA followed by Fisher LSD post-hoc test for pair-wise comparisons.
Levels of lactate secreted by astrocytes were measured in the extracellular medium at 90 min after stimulation with hits (molecules) from the CDC54K library.

[2] = tested on: primary astrocytes; experiment: High throughput screening (HTS) for lactate secretion: acidification of extracellular medium (SNARF5); format: cell-based, mouse; parameters: key to Score / HTS Score (SNARF5) / Score_SNARF: fraction of plate positive-control activity (1 = 100%); details: for Score_SNARF: primary screening confirmation (SNARF5)
Procedure: Primary cultures of cerebrocortical astrocytes were obtained from 1-2-day-old OF1 mouse pups (Charles River Laboratories). Briefly, cortices were isolated and minced in small pieces under a dissecting microscope. The cells were incubated for 30 min at 37° C. in a solution containing 20 U/ml of papain enzyme (Worthington Biochemical), L-cysteine 1 mM (Sigma), and 10 kU/ml DNase I (Worthington Biochemical) for an enzymatic dissociation. Papain activity was stopped by the addition of fetal calf serum (FCS) to the solution, and a single-cell suspension was then obtained by mechanical dissociation, which consisted in cells trituration in a DMEM (D7777, Sigma-Aldrich) medium (supplemented with 44 mm NaHCO3, and 10 ml/L antibiotic/antimycotic solution) containing 10% FCS. The cells were seeded at an average density of 6×10^4 cells/cm^2 in poly-D-lysine-coated 96, 12 or 6-well culture plates, depending on their use, and incubated at 37° C. in a humidified atmosphere containing 5% CO2/95% air. Culture medium was renewed twice per week. Cells were stimulated and harvested between DIV14 and DIV17, when confluence and cell growth were optimal.
Secretion of lactate in a high-throughput screening (HTS) fashion was measured indirectly through the acidification of extracellular medium. To this end, primary astrocytes grown in 96-well plates for 17 days were stimulated with the compounds as listed herein.
After washing the cells twice with stimulation medium (DMEM (D5030, Sigma), 3 mM NaHCO3 and 5 mM Glucose) at 37° C., cells were stimulated with the compounds at a final concentration of 10 uM (1% DMSO final) in 50 ul per well of stimulation medium supplemented with 10 uM of the extracellular pH sensor SNARF-5F %-(AND-6)-CAR (Life Technologies Corporation). Each compound was tested in two different plates for duplicates.
After 90 min stimulation, fluorescence was read at exc. (excitation) 480 nm/emm. (emission) 580 nm and at exc 480 nm/emm. 630 nm. The ratio of fluorescence between 630 nm and 580 emission values, which represents extracellular pH, was calculated.
In each plate, 8 wells were used for negative controls (DMSO) and 8 wells were used for positive controls (CCCP 2 uM in DMSO). Z prime values were calculated for each of the plates tested and values<0 were discarded.
The average and SD of compounds' values tested in duplicates were calculated, and compound was noted as HIT when the difference between compound's average and negative control's average was greater than three times the sum of compound's SD and negative controls' SD. Only scores greater than 40% were considered as lead Hits for the CDC54K library; for the remaining libraries, all hits were considered. Scores are calculated as the % of activity compared to the positive control in each plate (which is 100%).
Primary screening hits were cherry picked on new plates and confirmed for SNARF5 effect, after having discarded those compounds that are fluorescent (exc. 480 nm/emm. 580 nm or 630 nm) before stimulation. Extracellular medium was next analyzed for extracellular lactate quantification for secondary screening.
Identification of lactate-enhancing drugs with high throughput screening (HTS) experiments on astrocytes primary cultures using extracellular pH dye (SNARF5F 5-(and-6)-carboxylic acid) for 90 min. The procedure is described in Material and Methods (2. Cell culture, 2.1. HTS for lactate secretion and 2.2. Extracellular lactate quantification).
The procedure was performed as follows: • Primary screening: acidification of the extracellular medium • Primary screening confirmation: acidification of the extracellular medium, removal of compounds with fluorescent activity at exc. 480 nm/emm. 580 nm or 630 n. • Secondary screening: dosage of extracellular lactate

[3] = Appendix I, CDC54K primary screening, 10 uM, 90 min, relative to CCCP 2 uM

Structure (SMILES)	Score_LACTATE [1]	Score_SNARF ([2]; Appendix I)	Score ([2]; Prestwick library, 10 uM, 90 min, activity relative to positive control CCCP 2 uM)	HTS Score (lactate) ([2]; Prestwick library, 10 uM, 90 min, relative to positive control CCCP 2 uM)	Score [2, 3]
CCc1ccc(S(=O)(=O)N2CCSC2c2ccc(OC)c(OC)c2)cc1 (stereo not shown) [4052-4304]	0.4335	0.4491	–	–	–
Clc1ccc2c(c1)CCc1cccnc1C2=C1CCNCC1 [Desloratadine]	–	–	0.06079	0.061	–
Cc1oc2ncnc(N3CCCC(C(=O)NCc4ccccn4)C3)c2c1C (stereo not shown) [F228-0350]	1.023	1.011	–	–	–
Cc1oc2ncnc(N3CCCC(C(=O)NCc4cccnc4)C3)c2c1C (stereo not shown) [F228-0351]	0.8985	0.82	–	–	–
Cc1oc2ncnc(N3CCCC(C(=O)NCc4ccccc4)C3)c2c1C (stereo not shown) [F228-0365]	0.9001	0.9429	–	–	–
CCNC(=O)C1CCCN(c2ncnc3oc(C)c(C)c23)C1 (stereo not shown) [F228-0534]	0.3387	0.5203	–	–	–
CNC(=O)C1CCCN(c2ncnc3oc(C)c(C)c23)C1 (stereo not shown) [F228-0541]	0	0.3609	–	–	–
Cc1nc(N2CCCC(C(=O)NCc3cccnc3)C2)c2c(C)c(C)oc2n1 (stereo not shown) [F228-0856]	0	0	–	–	–
COc1ccc(Cl)cc1S(=O)(=O)NCc1ccncc1 [F0376-0203]	0	0	–	–	–
Cc1cccc([N+]2=C3SCCCN3C(O)(c3ccc(Cl)cc3)C2)c1.[Br-] (stereo not shown) [F0522-0533]	0	0.4705	–	–	–
COc1ccccc1[N+]1=C2CCCCN2C(O)(c2ccc(F)cc2)C1.[Br-] (stereo not shown) [F0524-0338]	1.585	0.634	–	–	–
OC1(c2ccccc2)C[N+](c2ccc(Cl)cc2)=C2CCCCN21.[Br-] (stereo not shown) [F0524-0488]	0	0.3489	–	–	–
COc1ccc(C2(O)C[N+](c3ccccc3C)=C3CCCCN32)cc1.[Br-] (stereo not shown) [F0524-0507]	0	0.4491	–	–	–
CCOc1ccc(C2(O)C[N+](c3ccccc3C)=C3CCCCN32)cc1.[Br-] (stereo not shown) [F0524-0511]	0	0.5555	–	–	–
COc1ccccc1[N+]1=C2CCCCCN2C(O)(c2ccc(F)cc2)C1.[Br-] (stereo not shown) [F0524-0611]	1.547	0.5954	–	–	–
COc1ccc(C2SCCN2S(=O)(=O)c2ccc(C)c(C)c2)cc1OC (stereo not shown) [F1462-0491]	0	0	–	–	–
COc1ccccc1Nc1nc(N2CCOCC2)c2ccccc2n1 [F3007-0009]	0	0	–	–	–
CC(=O)N1CCCc2cc(S(=O)(=O)NCc3ccccc3)ccc21 [G855-0210]	0	0.3123	–	–	–
COc1ccc(C2(O)C[N+](c3cc(C)ccc3C)=C3SCCCN32)c(F)c1 (stereo not shown) [K404-0183]	0	0	–	–	–

Structure (SMILES)	Score_LACTATE [1]	Score_SNARF ([2]; Appendix I)	Score ([2]; Prestwick library, 10 uM, 90 min, activity relative to positive control CCCP 2 uM)	HTS Score (lactate) ([2]; Prestwick library, 10 uM, 90 min, relative to positive control CCCP 2 uM)	Score [2, 3]
Cc1cccc([N+]2=C3SCCCN3C(O)(c3ccc(F)cc3)C2)c1 (stereo not shown) [K404-0394]	0.4429	0.3309	–	–	–
CCc1ccc(C2(O)C[N+](c3ccccc3OC)=C3CCCCN32)cc1 (stereo not shown) [K404-0672]	1.356	1.014	–	–	–
CCOc1ccc(C2(O)C[N+](c3ccccc3OC)=C3CCCCN32)cc1 (stereo not shown) [K404-0673]	2.024	0.9751	–	–	–
Cc1cccc([N+]2=C3CCCCN3C(O)(c3ccc(F)cc3)C2)c1C (stereo not shown) [K404-0685]	0.6821	0.6562	–	–	–
Cc1ccc(C)c([N+]2=C3CCCCN3C(O)(c3ccc(F)cc3)C2)c1 (stereo not shown) [K404-0697]	0.6526	0.5123	–	–	–
COc1ccc(C2(O)C[N+](c3cccc(C)c3)=C3CCCCN32)cc1 (stereo not shown) [K404-0796]	0	0.6402	–	–	–
Cc1cccc([N+]2=C3CCCCN3C(O)(c3ccc(Cl)cc3)C2)c1 (stereo not shown) [K404-0800]	0.8385	0.7386	–	–	–
COc1ccccc1[N+]1=C2CCCCCN2C(O)(c2ccccc2)C1 (stereo not shown) [K404-0838]	1.051	0.8328	–	–	–
COc1ccccc1[N+]1=C2CCCCCN2C(O)(c2cccc([N+](=O)[O-])c2)C1 (stereo not shown) [K404-0842]	0	0.2022	–	–	0.169
COc1ccc(OC)c([N+]2=C3CCCCCN3C(O)(c3ccc(C)cc3)C2)c1 (stereo not shown) [K404-0855]	0.6277	0.4944	–	–	–
CCOc1ccc(C2(O)C[N+](c3cc(OC)ccc3OC)=C3CCCCCN32)cc1 (stereo not shown) [K404-0860]	0.4766	0.6137	–	–	–
COc1ccc(C2(O)C[N+](c3ccccc3C)=C3CCCCCN32)cc1OC (stereo not shown) [K404-0906]	0	0	–	–	–
Cc1cccc([N+]2=C3CCCCCN3C(O)(c3ccc(F)cc3)C2)c1 (stereo not shown) [K404-0910]	0.6219	0.5878	–	–	–
Cc1cccc([N+]2=C3CCCCCN3C(O)(c3cccc([N+](=O)[O-])c3)C2)c1 (stereo not shown) [K404-0915]	–	–	–	–	0
Cc1cccc(NS(=O)(=O)c2cc(-c3noc(C)n3)cs2)c1 [L287-0220]	1.578	0.5829	–	–	–
O=S(=O)(NC1CCCC1)c1cc(-c2noc(C3CCC3)n2)cs1 [L287-1221]	0.6602	0.5995	–	–	–
CC(=O)c1ccc(NS(=O)(=O)c2cc(-c3noc(C4CCCC4)n3)cs2)cc1 [L287-1577]	1.215	1.059	–	–	–
Cc1ccc(CNS(=O)(=O)c2cc(-c3noc(C4CCCC4)n3)cs2)cc1 [L287-1641]	0.8035	0.626	–	–	–
Cn1nccc1-c1csc(S(=O)(=O)Nc2ccc(F)cc2)c1 [L924-0760]	0.7898	0.7695	–	–	–

Source: patent publication US12310967B2, “Compositions and methods of treatment for neurological disorders comprising motor neuron diseases” (Gliapharm SA, priority 2017, dated 2025)
